Data on 1 compound can be found in patent US6448256B1, “Antibiotic prodrugs” (University of Massachusetts, priority 1999, dated 2002).

Assay [1] deals with S. aureus (methicillin-sensitive Smith strain). The assay can be described thus: ip/ip mouse protection against lethal S. aureus infection. It is filed as in vivo, mice. More on the design: mice protected from death: dose or concentration left out as unconfirmed. The method, then: Step 1: Screening—Each candidate prodrug is screened for activity in an ip/ip S. aureus protection model. Candidates that display efficacy equivalent to that of HB-EMAU and HB-IMAU are selected for advanced pharmacokinetic analysis and application in the more relevant mouse thigh model of infection.
The efficacy of the propyl derivatives was tested against murine staphylococcal infection in vivo. A simple “ip/ip” system was used, in which 20 gram mice (10 each) were injected ip (intraperitoneally) with a lethal dose (2.3×10^7 CFU) of the methicillin-sensitive Smith strain of S. aureus. The mice were then immediately injected ip with the antibiotic agent as a 1:9 mixture of DMSO:peanut oil. Vancomycin was used as the positive control drug.
Both hydroxybutyl compounds were tested at 10 mg/kg in the mouse protection experiment against lethal S. aureus infection described in Example 4 above.

The subject of a further assay is S. aureus. The assay can be described thus: Mouse thigh infection model. It is filed as in vivo, mice. Conditions: ip in saline, 40 mg/kg every four hours. The source says:
The mouse thigh infection model has been pioneered and used by Craig and colleagues (Craig, W. A., Redington, J. and S. C. Ebert (1991) J. Antimicr. Chemother. 27:Suppl C, 29-40; Leggett, J. E., Ebert, S., Fantin, B. and W. A. Craig (1991) Scand. J. Inf. Dis. 74:179-184). It represents a rational, flexible, cost-effective, and reproducible experimental approach for predicting the efficacy of a bacterial infection in a human patient. It is particularly useful in the present invention, because it is adaptable to the use of clinically relevant strains of Staphylococcus and Enterococcus.
Mice are made neutropenic to render them susceptible to infection with a wide variety of bacteria. […] The infected thigh of each animal is homogenized in sterile saline, and the bacterial concentration in the homogenate is determined by dilution and plating. […]
Testing can be carried out as follows. […] Treatment with the test agent and the positive control agent (vancomycin) is initiated at 2 hours post-infection, using a route (Po, ip, or sc), schedule, and dosing regimen determined by the agent's in vitro potency and specific pharmacokinetic properties.
The compounds are given by ip injection of 0.05 ml of a saline solution. […] Results are expressed as the log reduction in bacterial growth as a fraction of that in vehicle-treated animals.

In the case of `CN[C@H](CC(C)C)C(=O)N[C@H]1C(=O)N[C@@H](CC(N)=O)C(=O)N[C@H]2C(=O)N[C@H]3C(=O)N[C@H](C(=O)N[C@H](C(=O)O)c4cc(O)cc(O)c4-c4cc3ccc4O)[C@H](O)c3ccc(c(Cl)c3)Oc3cc2cc(c3O[C@@H]2O[C@H](CO)[C@@H](O)[C@H](O)[C@H]2O[C@H]2C[C@](C)(N)[C@H](O)[C@H](C)O2)Oc2ccc(cc2Cl)[C@H]1O` [vancomycin, reference compound], the protection of mice entry in assay [1] (20 mg/kg, positive control) is “protected all mice”. In addition, in assay [1] (control drug, four day experiment), the “mice protected from death” value is recorded as “all ten mice”. The “log reduction in S. aureus proliferation compared with control thighs” value in the assay with S. aureus is 2-4 log.
